One assay has as its system barnyardgrass. The experiment in a line: Test Example 3: paddy pot test, application under submerged conditions. The format is in vivo, Echinochloa crus-galli L. As to conditions: submerged application at 0.5 leaf stage, visually observed 14 days after application, 0 = non-treated, 100 = complete kill. The text has this: (§1) Paddy field soil was put into a 1/1,000,000 ha pot, and seed of barnyardgrass and japanese bulrush were sown and slightly covered with soil. Then, the pot was left to stand still in a greenhouse in a state where the depth of flooding water was from 0.5 to 1 cm, and one day or two days later, tubers of japanese ribbon wapato were planted. Thereafter, the depth of flooding water was maintained at a level of from 3 to 4 cm, and when barnyardgrass and japanese bulrush reached a 0.5 leaf stage and japanese ribbon wapato reached a primary leaf stage, an aqueous diluted solution of a wettable powder or emulsifiable concentrate having the compound of the present invention formulated in accordance with a usual formulation method, was uniformly applied under submerged conditions by a pipette so that the dose of the active ingredient would be at a predetermined level. On the 14 days after the application of the herbicide, the growth of barnyard grass, japanese burlrush and japanese ribbon wapato was visually observed and on the 21st day after the application of the herbicide, the growth of rice was visually observed, and the herbicidal effects were evaluated by the growth-controlling degrees (%) ranging from 0 (equivalent to the non-treated plot) to 100 (complete kill), whereby the results shown in Table 5 were obtained.

For another assay, the system named is rice (var. Nihonbare). The experiment in a line: Test Example 3: paddy pot test, transplanted rice. The class given is in vivo, Oryza sativa L. As to conditions: applied 4th day after transplantation, visually observed 21st day after application, 0 = non-treated, 100 = complete kill.
Text: as §1, with “On the other hand, paddy field soil was put into a 1/1,000,000 ha pot and puddled and leveled, and the depth of flooding water was from 3 to 4 cm. Next day, rice (var. Nihonbare) of 2 leaf stage was transplanted in a depth of 3 cm. On the 4th day after the transplantation, the compound of the present invention was applied in the same manner as described above. On the 14 days” for “On the 14 days”

In a further assay the test system is japanese bulrush. The experiment in a line: Test Example 3: paddy pot test, application under submerged conditions. The class given is in vivo, Scirpus juncoides. Particulars: submerged application at 0.5 leaf stage, visually observed 14 days after application, 0 = non-treated, 100 = complete kill.
Text: as §1

Another assay relates to japanese ribbon wapato. Described as above. The class given is in vivo, Sagittaria pygniaea. Particulars: submerged application at primary leaf stage, visually observed 14 days after application, 0 = non-treated, 100 = complete kill.
Text: as §1

Take `CC(Oc1ccc(F)cc1F)C(=O)N(C)C(c1cnccc1C(F)(F)F)C(C)C` (mixture of isomers) [I-138]: the “Growth controlling degree (%) Barnyardgrass” value with barnyardgrass (active ingredient 250 g/ha) came out at 98%. Further, the “Growth controlling degree (%) Rice” value in the assay with rice (var. Nihonbare) (active ingredient 250 g/ha) was determined as 10%. Besides, the “Growth controlling degree (%) Japanese bulrush” value in the assay with japanese bulrush (active ingredient 250 g/ha) is 100%.
In the case of `CC(Oc1ccc(Cl)cc1)C(=O)N(C)C(c1cnccc1C(F)(F)F)C(C)C` (mixture of isomers) [I-139], the “Growth controlling degree (%) Barnyardgrass” value with barnyardgrass (active ingredient 250 g/ha) amounted to 98%. The “Growth controlling degree (%) Rice” value in the assay with rice (var. Nihonbare) (active ingredient 250 g/ha) was 10%. Further, in the assay with japanese bulrush (active ingredient 250 g/ha), the “Growth controlling degree (%) Japanese bulrush” value was 98%.
`CC(Sc1ccccc1)C(=O)N(C)C(c1cnccc1C(F)(F)F)C(C)C` (mixture of isomers) [I-140]: the “Growth controlling degree (%) Barnyardgrass” value in the assay on barnyardgrass (active ingredient 250 g/ha) is on record as 98%. Also, in the assay with rice (var. Nihonbare) (active ingredient 250 g/ha), the “Growth controlling degree (%) Rice” value was 0%. The “Growth controlling degree (%) Japanese bulrush” value with japanese bulrush (active ingredient 250 g/ha) is 98%.
Take `CC(Sc1ccc(Cl)cc1)C(=O)N(C)C(c1cnccc1C(F)(F)F)C(C)C` (mixture of isomers) [I-141]: in the assay with barnyardgrass (active ingredient 250 g/ha), the “Growth controlling degree (%) Barnyardgrass” value is 100%. For the same compound, in the assay on rice (var. Nihonbare) (active ingredient 250 g/ha), the “Growth controlling degree (%) Rice” value is listed as 20%. In the assay on japanese bulrush (active ingredient 250 g/ha), the “Growth controlling degree (%) Japanese bulrush” value turned out to be 98%.
`CC(C)C(c1cnccc1Br)N(C)C(=O)Cc1ccccc1` (racemic) [I-110]: in the assay on barnyardgrass (active ingredient 250 g/ha), the “Growth controlling degree (%) Barnyardgrass” value was 98%. In addition, the “Growth controlling degree (%) Rice” value in the assay with rice (var. Nihonbare) (active ingredient 250 g/ha) is 0%. Besides, in the assay on japanese ribbon wapato (active ingredient 250 g/ha), the “Growth controlling degree (%) Japanese ribbon wapato” value is 20%. For the same compound, the “Growth controlling degree (%) Japanese bulrush” value with japanese bulrush (active ingredient 250 g/ha) is given as 90%.
In the case of `CC(C)C(c1cnccc1C(F)(F)F)N(C)C(=O)OCc1ccccc1` (racemic) [I-111], the “Growth controlling degree (%) Barnyardgrass” value in the assay with barnyardgrass (active ingredient 250 g/ha) is given as 90%. Further, in the assay on rice (var. Nihonbare) (active ingredient 250 g/ha), the “Growth controlling degree (%) Rice” value stood at 0%. Also, in the assay with japanese bulrush (active ingredient 250 g/ha), the “Growth controlling degree (%) Japanese bulrush” value worked out at 10%.
As for `CC(C)C(NC(=O)c1ccccc1)c1cnccc1C(F)(F)F` (racemic) [I-115], the “Growth controlling degree (%) Barnyardgrass” value in the assay with barnyardgrass (active ingredient 500 g/ha) turned out to be 70%. Besides, the “Growth controlling degree (%) Rice” value in the assay on rice (var. Nihonbare) (active ingredient 500 g/ha) is given as 20%. In addition, the “Growth controlling degree (%) Japanese ribbon wapato” value in the assay on japanese ribbon wapato (active ingredient 500 g/ha) was 20%. The “Growth controlling degree (%) Japanese bulrush” value with japanese bulrush (active ingredient 500 g/ha) amounted to 40%.
Regarding `Cc1cc(F)ccc1CC(=O)N(C)C(c1cnccc1C(F)(F)F)C(C)C` (racemic) [I-116], in the assay on barnyardgrass (active ingredient 500 g/ha), the “Growth controlling degree (%) Barnyardgrass” value came out at 100%. Besides, the “Growth controlling degree (%) Rice” value with rice (var. Nihonbare) (active ingredient 500 g/ha) is 10%. In the assay with japanese ribbon wapato (active ingredient 500 g/ha), the “Growth controlling degree (%) Japanese ribbon wapato” value turned out to be 50%. The “Growth controlling degree (%) Japanese bulrush” value in the assay on japanese bulrush (active ingredient 500 g/ha) is listed as 95%.
As for `CC(C)C(c1ccc(C(F)(F)F)nc1)N(C)C(=O)Cc1ccccc1` (racemic) [I-123], the “Growth controlling degree (%) Barnyardgrass” value in the assay with barnyardgrass (active ingredient 500 g/ha) is on record as 70%. In addition, in the assay on rice (var. Nihonbare) (active ingredient 500 g/ha), the “Growth controlling degree (%) Rice” value came out at 10%. For the same compound, the “Growth controlling degree (%) Japanese bulrush” value with japanese bulrush (active ingredient 500 g/ha) amounted to 10%.
For `CC(C)C(NC(=O)Cc1ccc(C(F)(F)F)cc1)c1cnccc1C(F)(F)F` (stereo not drawn) [I-7], the “Growth controlling degree (%) Barnyardgrass” value in the assay with barnyardgrass (active ingredient 500 g/ha) was found to be 95%. Besides, the “Growth controlling degree (%) Rice” value with rice (var. Nihonbare) (active ingredient 500 g/ha) came out at 20%. For the same compound, in the assay with japanese ribbon wapato (active ingredient 500 g/ha), the “Growth controlling degree (%) Japanese ribbon wapato” value stood at 0%. For the same compound, the “Growth controlling degree (%) Japanese bulrush” value with japanese bulrush (active ingredient 500 g/ha) amounted to 70%.
As for `CC(C)C(c1cnccc1C(F)(F)F)N(C)C(=O)Cc1ccc(-c2ccccc2)cc1` (stereo not drawn) [I-9], in the assay on barnyardgrass (active ingredient 500 g/ha), the “Growth controlling degree (%) Barnyardgrass” value came to 100%. Moreover, the “Growth controlling degree (%) Rice” value in the assay with rice (var. Nihonbare) (active ingredient 500 g/ha) was 0%. Besides, the “Growth controlling degree (%) Japanese ribbon wapato” value in the assay on japanese ribbon wapato (active ingredient 500 g/ha) is reported as 30%. Besides, the “Growth controlling degree (%) Japanese bulrush” value with japanese bulrush (active ingredient 500 g/ha) is on record as 10%.
Turning to `CCN(C(=O)Cc1ccccc1)C(c1cnccc1C(F)(F)F)C(C)C` (stereo not drawn) [I-24], the “Growth controlling degree (%) Rice” value in the assay with rice (var. Nihonbare) (active ingredient 500 g/ha) is reported as 40%. In addition, in the assay on japanese ribbon wapato (active ingredient 500 g/ha), the “Growth controlling degree (%) Japanese ribbon wapato” value came out at 100%. The “Growth controlling degree (%) Japanese bulrush” value in the assay on japanese bulrush (active ingredient 500 g/ha) is 95%.
Turning to `COc1ccccc1CC(=O)N(C)C(c1cnccc1C(F)(F)F)C(C)C` (stereo not drawn) [I-35], the “Growth controlling degree (%) Barnyardgrass” value in the assay with barnyardgrass (active ingredient 250 g/ha) is reported as 100%. Besides, in the assay on rice (var. Nihonbare) (active ingredient 250 g/ha), the “Growth controlling degree (%) Rice” value came out at 0%. Moreover, the “Growth controlling degree (%) Japanese ribbon wapato” value with japanese ribbon wapato (active ingredient 250 g/ha) is 70%. Moreover, in the assay on japanese bulrush (active ingredient 250 g/ha), the “Growth controlling degree (%) Japanese bulrush” value came out at 95%.
On to `CSc1ccc(CC(=O)N(C)C(c2cnccc2C(F)(F)F)C(C)C)cc1` (stereo not drawn) [I-37], for which the “Growth controlling degree (%) Barnyardgrass” value in the assay with barnyardgrass (active ingredient 250 g/ha) was determined as 100%. Also, the “Growth controlling degree (%) Rice” value in the assay with rice (var. Nihonbare) (active ingredient 250 g/ha) turned out to be 0%. In addition, the “Growth controlling degree (%) Japanese ribbon wapato” value in the assay on japanese ribbon wapato (active ingredient 250 g/ha) was found to be 10%. Further, the “Growth controlling degree (%) Japanese bulrush” value in the assay on japanese bulrush (active ingredient 250 g/ha) was 50%.
Take `CCCC(=O)NC(c1cnccc1C(F)(F)F)c1cccc2ccccc12` (stereo not drawn) [I-49]: the “Growth controlling degree (%) Barnyardgrass” value in the assay on barnyardgrass (active ingredient 500 g/ha) is given as 90%. Moreover, the “Growth controlling degree (%) Rice” value in the assay on rice (var. Nihonbare) (active ingredient 500 g/ha) worked out at 10%. Further, the “Growth controlling degree (%) Japanese bulrush” value with japanese bulrush (active ingredient 500 g/ha) turned out to be 85%.
Consider `CCCC(=O)N(C)C(c1cnccc1C(F)(F)F)c1cccc2ccccc12` (stereo not drawn) [I-50], for which, in the assay with barnyardgrass (active ingredient 500 g/ha), the “Growth controlling degree (%) Barnyardgrass” value is reported as 95%. For the same compound, in the assay on rice (var. Nihonbare) (active ingredient 500 g/ha), the “Growth controlling degree (%) Rice” value stood at 10%. Besides, the “Growth controlling degree (%) Japanese bulrush” value with japanese bulrush (active ingredient 500 g/ha) came out at 95%.
For the compound `CC(C)C(c1cnccc1C(F)(F)F)N(C)C(=O)Cc1cccc2ccccc12` (stereo not drawn) [I-56], in the assay with barnyardgrass (active ingredient 500 g/ha), the “Growth controlling degree (%) Barnyardgrass” value was determined as 95%. Further, the “Growth controlling degree (%) Rice” value with rice (var. Nihonbare) (active ingredient 500 g/ha) is listed as 20%. In the assay on japanese ribbon wapato (active ingredient 500 g/ha), the “Growth controlling degree (%) Japanese ribbon wapato” value is on record as 90%. The “Growth controlling degree (%) Japanese bulrush” value in the assay on japanese bulrush (active ingredient 500 g/ha) amounted to 70%.
On the same counts, the results for `CC(C)C(c1cnccc1C(F)(F)F)N(C)C(=O)Cc1ccc2ccccc2c1` (stereo not drawn) [I-58] are 100%, 35%, 0% and 40%.
On the same counts, the results for `CC(C)C(c1cnccc1Cl)N(C)C(=O)Cc1ccc2ccccc2c1` (stereo not drawn) [I-59] are 90%, 10%, 60% and 10%.
Regarding `CC(C)C(c1cnccc1Cl)N(C)C(=O)Cc1ccc(F)cc1F` (stereo not drawn) [I-71], the “Growth controlling degree (%) Barnyardgrass” value in the assay on barnyardgrass (active ingredient 125 g/ha) turned out to be 90%. Also, the “Growth controlling degree (%) Rice” value in the assay with rice (var. Nihonbare) (active ingredient 125 g/ha) was found to be 0%. Also, in the assay with japanese ribbon wapato (active ingredient 125 g/ha), the “Growth controlling degree (%) Japanese ribbon wapato” value is 40%. For the same compound, the “Growth controlling degree (%) Japanese bulrush” value in the assay with japanese bulrush (active ingredient 125 g/ha) is recorded as 90%.
Consider `CCN(C(=O)Cc1cccc(F)c1F)C(c1cnccc1C(F)(F)F)C(C)C` (stereo not drawn) [I-77], for which, in the assay on barnyardgrass (active ingredient 250 g/ha), the “Growth controlling degree (%) Barnyardgrass” value is given as 98%. For the same compound, the “Growth controlling degree (%) Rice” value in the assay with rice (var. Nihonbare) (active ingredient 250 g/ha) was determined as 0%. The “Growth controlling degree (%) Japanese ribbon wapato” value in the assay with japanese ribbon wapato (active ingredient 250 g/ha) is listed as 40%. Besides, in the assay on japanese bulrush (active ingredient 250 g/ha), the “Growth controlling degree (%) Japanese bulrush” value was 95%.
Take `CC(C)C(c1cnccc1C(F)(F)F)N(C)S(=O)(=O)C=Cc1ccc(Cl)cc1` (stereo not drawn) [I-142]: in the assay on barnyardgrass (active ingredient 250 g/ha), the “Growth controlling degree (%) Barnyardgrass” value is listed as 100%. Further, the “Growth controlling degree (%) Rice” value in the assay with rice (var. Nihonbare) (active ingredient 250 g/ha) turned out to be 10%. Also, the “Growth controlling degree (%) Japanese bulrush” value in the assay on japanese bulrush (active ingredient 250 g/ha) is 60%.
On the same counts, the results for `CC(C)C(c1cnccc1C(F)(F)F)N(C)C(=O)C(F)(F)c1ccccc1` (stereo not drawn) [I-143] are 98%, 10% and 98%.
In the same order, the values of `COc1ccc(S(=O)(=O)N(C)C(c2cnccc2C(F)(F)F)C(C)C)cc1` (stereo not drawn) [I-144] are 100%, 20% and 98%.
Consider `CC(C)C(c1cnccc1C(F)(F)F)N(C)S(=O)(=O)c1ccc(C(C)(C)C)cc1` (stereo not drawn) [I-145], for which, in the assay on barnyardgrass (active ingredient 250 g/ha), the “Growth controlling degree (%) Barnyardgrass” value came to 100%. Further, in the assay on rice (var. Nihonbare) (active ingredient 250 g/ha), the “Growth controlling degree (%) Rice” value amounted to 20%. Moreover, the “Growth controlling degree (%) Japanese bulrush” value with japanese bulrush (active ingredient 250 g/ha) amounted to 0%.
In the same order, the values of `C=CCCC(=O)N(C)C(c1cnccc1C(F)(F)F)C(C)C` (stereo not drawn) [I-211] are 100%, 50% and 98%.
